Laboratory results: patent US20220119493A1, “IL-7R-ALPHA BINDING COMPOUNDS” (MEDIKINE, INC., priority 2020, published 2022)

What was measured:
[1] = target: T1, IL-7Rα (Homo sapiens, UniProt P16871); assay: Competitive binding ELISA bn407:NA-HRP; conditions: bn407:NA-HRP 10 nMf; SEQ ID NOS: 520-534 with two glycines (-GG-) on the carboxyl terminus
T1 construct: Fc; purchased ACRObiosystems, Inc. ILB-H5258

[2] = target: T2, IL-7Rα subunit (Homo sapiens, UniProt P16871); assay: Phage ELISA competition assay; conditions: read-out: IC50, binding to the unique binding site on the IL-7Rα subunit
T2 construct: Fc; purchased ACRObiosystems, Inc. ILB-H5258

[3] = test system: CD4 and CD8 T-cells; assay: Ki-67 proliferation assay in CD4 and CD8 T-cells; assay type: cell-based; conditions: human PBMCs, 3 days; hIL-7 comparator

T2 sequence (P16871 21-236): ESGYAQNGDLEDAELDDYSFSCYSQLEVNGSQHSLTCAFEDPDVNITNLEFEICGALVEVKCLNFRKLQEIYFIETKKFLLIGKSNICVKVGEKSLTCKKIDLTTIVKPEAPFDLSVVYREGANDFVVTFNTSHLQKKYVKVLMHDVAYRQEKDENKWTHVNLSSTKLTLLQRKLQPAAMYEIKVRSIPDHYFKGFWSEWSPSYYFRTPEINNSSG
T1 sequence (P16871 21-236): as above

| IC50 [2] [µM] | Compound | other results |
| --- | --- | --- |
|  | CC[C@H](C)[C@H](NC(=O)[C@H](CCCNC(=N)N)NC(=O)[C@H](Cc1c[nH]cn1)NC(=O)[C@@H](N)C(C)C)C(=O)N1CCC[C@H]1C(=O)N[C@@H](Cc1c[nH]c2ccccc12)C(=O)N[C@H]1CSSC[C@@H](C(=O)N[C@@H](C)C(=O)N[C@@H](Cc2c[nH]c3ccccc23)C(=O)N[C@@H](CC(C)C)C(=O)N[C@@H](CCCNC(=N)N)C(=O)N[C@@H](CCC(N)=O)C(=O)N[C@@H](CCSC)C(=O)NCC(=O)NCC(=O)O)NC(=O)[C@H](CCC(N)=O)NC(=O)[C@H](CC(C)C)NC(=O)CNC(=O)CNC(=O)[C@@H]2CCCN2C(=O)[C@H](CC(=O)O)NC(=O)[C@H](CC(C)C)NC(=O)[C@H]([C@@H](C)O)NC1=O [SEQ ID NO: 554, VHRIPWCTLDPGGLQCAWLRQMGG] | IC50 [1]: 0.382 µM |
| < 10 | CSCC[C@H](NC(=O)[C@@H](N)Cc1ccc(O)cc1)C(=O)N[C@@H](C)C(=O)N[C@H]1CSSC[C@@H](C(=O)N[C@@H](CCCNC(=N)N)C(=O)N[C@@H](CC(C)C)C(=O)N[C@@H](CO)C(=O)O)NC(=O)[C@H](CC(C)C)NC(=O)[C@H](CO)NC(=O)[C@H](CC(C)C)NC(=O)CNC(=O)[C@H](CO)NC(=O)[C@H](CO)NC1=O [compound 104] |  |
| < 10 | CC[C@H](C)[C@H](NC(=O)[C@@H]1CSSC[C@H](NC(=O)[C@@H](N)CCC(N)=O)C(=O)N[C@@H](C(C)C)C(=O)N[C@@H](Cc2c[nH]cn2)C(=O)N[C@@H](Cc2c[nH]c3ccccc23)C(=O)N[C@@H](CC(=O)O)C(=O)N[C@@H](CC(C)C)C(=O)N[C@@H](CC(=O)O)C(=O)N[C@@H]([C@@H](C)O)C(=O)N[C@@H](CC(C)C)C(=O)N[C@@H](Cc2ccccc2)C(=O)NCC(=O)N1)C(=O)N[C@@H](CCCNC(=N)N)C(=O)N[C@@H](CCC(=O)O)C(=O)N[C@@H](CCC(N)=O)C(=O)N[C@@H](CC(C)C)C(=O)N[C@@H](CCC(=O)O)C(=O)N[C@@H](CC(C)C)C(=O)O [compound 146] |  |
| < 10 | CC(C)C[C@@H]1NC(=O)[C@H](CO)NC(=O)CNC(=O)[C@@H]2CCCN2C(=O)[C@H](CC(=O)O)NC(=O)[C@H](CC(C)C)NC(=O)[C@H]([C@@H](C)O)NC(=O)[C@@H](NC(=O)[C@H](Cc2c[nH]c3ccccc23)NC(=O)[C@@H]2CCCN2C(=O)[C@@H](NC(=O)CNC(=O)CN)C(C)C)CSSC[C@@H](C(=O)N[C@@H](C)C(=O)N[C@@H](Cc2c[nH]c3ccccc23)C(=O)N[C@@H](Cc2ccccc2)C(=O)O)NC(=O)[C@H](CCC(N)=O)NC1=O [compound 458] |  |
|  | hIL-7: human interleukin-7, the natural cytokine, comparator in the functional assays | EC50 [3]: ~0.001 µM |
